From paper PMC12401824, “Studies on the impact of modifications at the Gln-Trp site in RM2-based GRPR ligands” (EJNMMI Research, 2025)
Values joined by “and” are separate entries in the source; they are usually repeats but may differ in a detail not shown here. Equal values may be shown once. “Also recorded” adds a separate entry of the source. Read-outs that look alike come from different tables or passages of the source. Starred links: 1 amine or outer side, 2 acyl side, 3 side chain; linkers in the order of their positions; H or OH if unused. Non-standard residues stand in square brackets, D forms with d. Residues, ends and D or L forms follow the SMILES beside them. *: point of attachment. DOTA = O=C(O)CN1CCN(CC(=O)O)CCN(CC(=O)*)CCN(CC(=O)O)CC1; Sta = CC(C)C[C@H](N)[C@@H](O)CC(=O)O; Bta = N[C@@H](Cc1csc2ccccc12)C(=O)O; X1 = O=C(CN1CCC(N[*:1])CC1)[*:2]; hSer = N[C@@H](CCO)C(=O)O

Key:
PC-3 tumor xenograft = assay: Competition study: co-injection of excess Lu-RM2 in PC-3 tumor-bearing mice; format: in vivo; settings: ^177Lu-labeled, 100 pmol; co-injection of 40 nmol Lu-RM2; 1 h p.i.; n = 3
Protocol: µPET/CT imaging. Imaging studies were performed at a MILabs VECTor^4 small-animal SPECT/PET/OI/CT device (MILabs, Utrecht, the Netherlands). Data were reconstructed using the MILabs Rec software (version 10.02) and a pixel-based Similarity-Regulated Ordered Subsets Expectation Maximization (SROSEM) algorithm, followed by data analysis using the PMOD4.0 software (PMOD TECHNOLOGIES LLC, Zurich, Switzerland). […] Static images were recorded at 1 h p.i. with an acquisition time of 45–60 min (3–4 frames, 15 min each) using the HE-GP-RM collimator and a step-wise multi-planar bed movement. Depending on the size of the mouse, either four or eight bed position were required, with an imaging time of ~ 1.8 min or ~ 3.6 min per bed position. For competition studies, 3.62 mg/kg (40 nmol) of Lu-RM2 (10^−3 M in PBS) were co-administered.
Figure S6. […] Data are expressed as mean ± SD (n = 4). […] Data are expressed as mean ± SD (n = 3).

[1] = Metabolic stability in vivo in mice (intact tracer in serum); settings: ^177Lu-labeled, healthy mice
Protocol: Metabolic stability in vivo was determined according to a previously published protocol by injecting approximately 30–40 MBq (1 nmol, 150 µL) of the ^177Lu-labeled compounds into the tail vein of anesthetized CB17-SCID mice (n = 3).

[2] = Biodistribution in PC-3 tumor-bearing CB17-SCID mice; format: in vivo; settings: mouse, intravenous, 100 pmol, ^177Lu-labeled, 100 pmol, n = 4; for tissue uptake at 1 h: 1 h p.i.; for tissue uptake at 24 h: 24 h p.i.
Protocol: To establish tumor xenografts, PC-3 cells (5.0 × 10^6 cells per 200 µL) were suspended in a 1/1 mixture (v/v) of Dulbecco’s modified eagle's medium/Ham’s F-12 with Glutamax-I (v/v = 1/1) and Cultrex® Basement Membrane Matrix Type 3 (Trevigen Inc., Gaithersburg, MD, USA) and inoculated subcutaneously onto the right shoulder of CB17-SCID mice (Charles River Laboratories International Inc., Sulzfeld, Germany). Mice (n = 4) were used for experiments when tumor volume has reached 125–500 mm^3 (2–3 weeks after inoculation).
Biodistribution. […] (n = 4), respectively. Selected organs were removed, weighted and measured in a γ-counter.

[3] = adrenal, read-out: Uptake in Adrenal
[4] = blood, read-out: Uptake in Blood
[5] = heart, read-out: Uptake in Heart
[6] = intestine, read-out: Uptake in Intestine
[7] = kidney, read-out: Uptake in Kidney
[8] = liver, read-out: Uptake in Liver
[9] = muscle, read-out: Uptake in Muscle
[10] = pancreas, read-out: Uptake in Pancreas
[11] = spleen, read-out: Uptake in Spleen
[12] = stomach, read-out: Uptake in Stomach
[13] = tumor, read-out: Uptake in Tumor

Row | Intact compound in murine serum in vivo, 15 min after injection [1] | tissue uptake at 1 h [2, 3] [%ID/g] | tissue uptake at 24 h [2, 3] [%ID/g] | tissue uptake at 1 h [2, 4] [%ID/g] | tissue uptake at 24 h [2, 4] [%ID/g] | tissue uptake at 1 h ([2]; bone, read-out: Uptake in Bone) [%ID/g] | tissue uptake at 24 h ([2]; bone, read-out: Uptake in Bone) [%ID/g] | tissue uptake at 1 h [2, 5] [%ID/g] | tissue uptake at 24 h [2, 5] [%ID/g] | tissue uptake at 1 h [2, 6] [%ID/g] | tissue uptake at 24 h [2, 6] [%ID/g] | tissue uptake at 1 h [2, 7] [%ID/g] | tissue uptake at 24 h [2, 7] [%ID/g] | tissue uptake at 1 h [2, 8] [%ID/g] | tissue uptake at 24 h [2, 8] [%ID/g] | tissue uptake at 1 h ([2]; lung, read-out: Uptake in Lung) [%ID/g] | tissue uptake at 24 h ([2]; lung, read-out: Uptake in Lung) [%ID/g] | tissue uptake at 1 h [2, 9] [%ID/g] | SMILES | Specificity of tumor accumulation (competition with excess of Lu-RM2) (PC-3 tumor xenograft) | Intact compound in murine serum in vivo, 30 min after injection [1] | further results
1 | < 20% and ~ 10% | 1.1 ± 0.1 | 0.59 ± 0.33 | 1.6 ± 0.1 | 0.04 ± 0.04 | 0.9 | 2.58 ± 1.05 | 0.7 | 0.09 ± 0.01 | 1 ± 0.3 | 0.28 ± 0.07 | 4.4 ± 0.4 | 2.07 ± 0.23 | 1.1 ± 0.1 | 0.77 ± 0.09 | 1.8 ± 0.2 | 0.22 ± 0.11 | 0.2 ± 0.1 | CC(C)C[C@H](NC(=O)C[C@H](O)[C@H](CC(C)C)NC(=O)[C@H](Cc1c[nH]cn1)NC(=O)CNC(=O)[C@@H](NC(=O)[C@H](C)NC(=O)[C@H](Cc1csc2ccccc12)NC(=O)[C@H](CCC(N)=O)NC(=O)[C@@H](Cc1ccccc1)NC(=O)CN1CCC(NC(=O)CN2CCN(CC(=O)O)CCN(CC(=O)O)CCN(CC(=O)O)CC2)CC1)C(C)C)C(N)=O [[^177Lu]Lu-[Bta^8]RM2, metal not drawn] ({DOTA}-[X1][dF]Q[Bta]AVGH[Sta]L-NH2) | specific | did not show any intact; also recorded: could not detect any intact | tissue uptake at 24 h [2, 9]: 0.02 ± 0.02 %ID/g; tissue uptake at 1 h [2, 10]: 3.7 ± 1.4 %ID/g; tissue uptake at 24 h [2, 10]: 0.17 ± 0.02 %ID/g; tissue uptake at 24 h [2, 11]: 0.32 ± 0.06 %ID/g; tissue uptake at 1 h [2, 12]: 1.3 ± 0.3 %ID/g; tissue uptake at 24 h [2, 12]: 0.27 ± 0.08 %ID/g; tissue uptake at 1 h [2, 13]: 12.1 ± 1.8 %ID/g; tissue uptake at 24 h [2, 13]: ~2 %ID/g
2 | < 20% and ~ 19% | 1.2 ± 0.5 | 0.61 ± 0.21 | 1 ± 0.2 | 0.02 | 0.2 | 2.37 ± 1.13 | 0.4 ± 0.1 | 0.11 ± 0.03 | 1.6 ± 0.2 | 0.38 ± 0.11 | 4.8 ± 0.3 | 1.94 ± 0.28 | 0.9 ± 0.1 | 0.96 ± 0.15 | 0.9 ± 0.2 | 0.17 ± 0.02 | 0.2 | CC(C)C[C@H](NC(=O)C[C@H](O)[C@H](CC(C)C)NC(=O)[C@H](Cc1c[nH]cn1)NC(=O)CNC(=O)[C@@H](NC(=O)[C@H](C)NC(=O)[C@H](Cc1c[nH]c2ccccc12)NC(=O)[C@H](CCO)NC(=O)[C@@H](Cc1ccccc1)NC(=O)CN1CCC(NC(=O)CN2CCN(CC(=O)O)CCN(CC(=O)O)CCN(CC(=O)O)CC2)CC1)C(C)C)C(N)=O [[^177Lu]Lu-[Hse^7]RM2, metal not drawn] ({DOTA}-[X1][dF][hSer]WAVGH[Sta]L-NH2) | specific | did not show any intact; also recorded: could not detect any intact | tissue uptake at 24 h [2, 9]: 0.01 %ID/g; tissue uptake at 1 h [2, 10]: 8 ± 0.5 %ID/g; tissue uptake at 24 h [2, 10]: 0.14 ± 0.01 %ID/g; tissue uptake at 1 h [2, 11]: 0.6 ± 0.2 %ID/g; tissue uptake at 24 h [2, 11]: 0.36 ± 0.03 %ID/g; tissue uptake at 1 h [2, 12]: 2.2 ± 0.3 %ID/g; tissue uptake at 24 h [2, 12]: 0.26 ± 0.01 %ID/g; tissue uptake at 1 h [2, 13]: 16.6 ± 1.6 %ID/g; tissue uptake at 24 h [2, 13]: ~2 %ID/g
